{"source": "patent US20120253264A1", "about": "“PHOTOCHEMICAL INTERNALIZATION METHOD” (priority 2009, published 2012)", "key": {"[1]": {"assay": "Stability of aqueous solutions of TPPS2a and TPCS2a salts at 40° C. for 31 days, analyzed by HPLC", "type": "physicochemical", "method": "Aqueous solutions of TPPS2a salts (approx. 1% weight) were kept at 40° C. for 31 days. The solutions were analyzed by HPLC(HP 1100). The HPLC conditions were as follows:\nColumn: Agilent Extend C-18\nMobile phase: 85% methanol, 15% water\nDetector: UV detector, 415 nm\nAqueous solutions of TPCS2a salts (approx. 1% weight) were kept at 40° C. for 31 days."}, "[2]": {"assay": "Solubility in water of TPPS2a and TPCS2a salts (water added in 0.2 ml portions to approx. 50 mg)", "source_text": "(§1) The mixture was agitated until solid particles were broken up and dissolved.\nas §1"}, "[3]": {"conditions": "TPPS2a salts, aqueous solution approx. 1% weight, 40° C., 31 days, HPLC UV 415 nm"}}, "note": "Read-outs that look alike come from different tables or passages of the source."}
{"compound": "NCCO.NCCO.O=S(=O)(O)c1ccc(-c2c3nc(c(-c4ccc(S(=O)(=O)O)cc4)c4ccc([nH]4)c(-c4ccccc4)c4nc(c(-c5ccccc5)c5ccc2[nH]5)C=C4)C=C3)cc1", "note": "[Example 1, Meso-Tetraphenyl Porphyrin Disulphonate Bis(Monoethanolamine)]", "values": [{"measurement": "Degradation", "setting": "[1]; [3]", "result": "No degradation"}]}
{"compound": "CNCC(O)C(O)C(O)C(O)CO.CNCC(O)C(O)C(O)C(O)CO.O=S(=O)(O)c1ccc(-c2c3nc(c(-c4ccccc4)c4ccc([nH]4)c(-c4ccccc4)c4nc(c(-c5ccc(S(=O)(=O)O)cc5)c5ccc2[nH]5)C=C4)C=C3)cc1", "note": "[Example 2, Meso-Tetraphenyl Porphyrin Disulphonate Bis(Meglumate)]", "values": [{"measurement": "Minimum solubility in water", "setting": "[2]", "result": 89.7, "unit": "mg/mL"}, {"measurement": "Degradation", "setting": "[1]", "result": "No degradation"}]}
{"compound": "O=S(=O)(O)c1ccc(-c2c3nc(c(-c4ccccc4)c4ccc([nH]4)c(-c4ccccc4)c4nc(c(-c5ccc(S(=O)(=O)O)cc5)c5ccc2[nH]5)C=C4)C=C3)cc1.OCCNCCO.OCCNCCO", "note": "[Example 4, Meso-Tetraphenyl Porphyrin Disulphonate Bis(Diethanolamine)]", "values": [{"measurement": "Degradation", "setting": "[1]", "result": "No degradation"}]}
{"compound": "O=S(=O)(O)c1ccc(-c2c3nc(c(-c4ccc(S(=O)(=O)O)cc4)c4ccc([nH]4)c(-c4ccccc4)c4nc(c(-c5ccccc5)c5ccc2[nH]5)C=C4)C=C3)cc1.OCCN1CCCC1.OCCN1CCCC1", "note": "[Example 5, Meso-Tetraphenyl Porphyrin Disulphonate Bis(1-(2-Hydroxyethyl)Pyrrolidine)]", "values": [{"measurement": "Degradation", "setting": "[1]", "result": "No degradation"}]}
{"compound": "O=S(=O)(O)c1ccc(-c2c3nc(c(-c4ccc(S(=O)(=O)O)cc4)c4ccc([nH]4)c(-c4ccccc4)c4nc(c(-c5ccccc5)c5ccc2[nH]5)C=C4)C=C3)cc1.OCCN(CCO)CCO.OCCN(CCO)CCO", "note": "[Example 6, Meso-Tetraphenyl Porphyrin Disulphonate Bis(Triethanolamine)]", "values": [{"measurement": "Degradation", "setting": "[1]; [3]", "result": "No degradation"}]}
{"compound": "Meso-Tetraphenyl Chlorin Disulphonate Bis(Meglumate) [Example 8]", "values": [{"measurement": "Minimum solubility in water", "setting": "[2]; TPCS2a salts, water added in 0.2 ml portions to approx. 50 mg until dissolved", "result": 38.9, "unit": "mg/mL"}, {"measurement": "Degradation", "setting": "[1]; TPCS2a salts, aqueous solution approx. 1% weight, 40° C., 31 days, HPLC", "result": "No degradation"}]}
{"compound": "Meso-Tetraphenyl Chlorin Disulphonate Bis(Monoethanolamine) [Example 7]", "values": [{"measurement": "Degradation", "setting": "[1]", "result": "No degradation"}]}
